Measured values reported in US11439615B2, “Lipoxin and lipoxin analogue mediated neuroprotection and treatments” (University Health Network, priority 2017, dated 2022).

Tests used:
HT22 cells [1] = test: Glutamate challenge of HT22 neuronal cells, viability; format: cell-based; conditions: for efficacy of neuroprotection / EC50: HT22 cells exposed to glutamate stress, nonlinear regression; for EC50: Mus musculus, HT-22, n=3/point, read-out: EC50 of neuroprotection; for viability of glutamate challenged HT22 cells: increasing concentrations up to 500 nM, 5 mM glutamate
Procedure: An in vitro assay to recapitulate key aspects of the acute KA model was established. In this case, unconcentrated ACM was applied to the glutamate sensitive neuronal cell line HT22 (66, 67). Glutamate challenge of 5 mM was titrated to induce 60-80% cell death (ie: 20-40% survival). […] The media was concentrated for proteomic analyses.
LXA4 and LXB4 promote direct neuroprotective signaling. To the inventor's knowledge, a role for lipoxins as direct neuroprotective or neurotrophic factors has not been reported. Although their established anti-inflammatory actions extend to the CNS (29-32). However, it was hypothesized they may have indirect protective effects. In order to test whether the protective activity was direct or indirect, LXA4 or LXB4 was applied to neuronal cells in an established in vitro assay.
There is no established receptor for LXB4. However, LXB4 shares structural homology with LXA4 and the DHA-derived resolving D2 (RvD2), which mediate their actions via FPR2 or GPR18 (74), respectively. Therefore, it was assessed whether specific receptor antagonists for FPR2 or GPR18 could block LXB4 mediated protection.
As shown in FIG. 14 lipoxin neuroprotection is dose responsive. Dose responses were generated for LXA4 (open circles) and LXB4 (closed circles) in HT22 cells exposed to glutamate stress, followed by nonlinear regression analyses.

HT22 cells [2] = test: Mitosox mitochondrial oxidative stress in glutamate challenged HT22 cells; format: cell-based; conditions: 1 μM, HT22 cells challenged with glutamate, vs vehicle
Procedure: HT22 cells challenged with glutamate were then assayed for mitochondrial oxidative stress using the Mitosox reagent, in combination with 1 μM LXA4, LXB4, and the LXA4 receptor ALX/FPR2 agonists Quinc-1 and Mmk-1.

[3] = system: dopaminergic SH-SY5Y cells; test: Mitochondrial oxidative stress in SH-SY5Y cells challenged with paraquat; format: cell-based; conditions: paraquat (PQ) induced oxidative stress, vs vehicle
primary RGCs = test: Primary RGCs under serum deprivation, cell and neurite survival (β3-tubulin); format: cell-based, rat; conditions: 1 μM, 48 hours of serum and supplement deprivation
Procedure: For astrocytes: Primary mature retinal astrocytes (RA) were isolated and cultured as previously described (46). Briefly, eyes were dissected out of adult Wistar rats and placed in ice-cold MEM-H17 media. Isolated retinas were digested by shaking in MEM-H17 containing papain and DNAse, followed by trituration to disperse cell-aggregates. When cultures reached confluence, the cells were placed on a rotating shaker for 6-8 hours to remove microglia and then re-plated. A glial-specific expression profile was confirmed by probing the cultures with a panel of glia microglia and neuronal markers (44). For RGCs: RGCs were purified using magnetic MicroBeads (Miltenyi Biotec, Germany) according to the manufacturer's protocol. Briefly; retinal cell suspensions were prepared from 8-10 day old rats and incubated with CD90.1 microbeads, and then carefully washed with DPBS/BSA buffer. The suspension was centrifuged at 130×g and the supernatant aspirated. Cells were then incubated with biotinylated depletion antibodies against microglia and endothelial cells. The labeled cell suspension was then incubated with magnetic Anti-Biotin MACSiBead™ Particles, and placed in a weak magnetic field. The pre-enriched cell suspension was centrifuged, and resuspended in fresh DPBS/BSA buffer and applied to a MACs MS separation column in the presence of a strong magnetic field to select for CD90.1-bound RGCs. To increase RGC purity, the eluted fraction was enriched over a second column. Purified RGCs were eluted and plated on poly-D-lysine coated dishes. The cells were cultured in Neurobasal-A media (Gibco) supplemented with 2% calf serum, B27, L-glutamine, BDNF, CNTF, forskolin and pen/strep.
To further confirm direct lipoxin activity in primary neurons, the ability of LXA4 or LXB4 to protect primary RGCs was tested. RGCs were isolated by immunopanning according to established methods. The cells were subjected to serum deprivation (SD), and then stained for β3-tubulin to quantify cell and neurite survival. Under normal serum, the RGCs extended an extensive network of neurites. […]

primary cortical neurons = test: Primary cortical neurons under paraquat oxidative stress, neuron number; format: cell-based; conditions: n=5
Excerpt: Quantification of neuron number following oxidative stress from the redox cycling compound paraquat in primary cortical neurons.

| Structure (SMILES) | efficacy of neuroprotection (HT22 cells [1]) | EC50 (HT22 cells [1]) [nM] | viability of glutamate challenged HT22 cells (HT22 cells [1]) | mitochondrial oxidative stress (Mitosox) (HT22 cells [2]) | mitochondrial oxidative stress / mitochondria stabilisation [3] | neuron survival following serum deprivation (primary RGCs) | neuron number following oxidative stress from paraquat (primary cortical neurons) | neurite degeneration following serum deprivation (intact neurite ratio) (primary RGCs) |
| --- | --- | --- | --- | --- | --- | --- | --- | --- |
| CCCCC[C@H](O)/C=C/C=C\C=C\C=C\[C@@H](O)[C@@H](O)CCCC(=O)O [LXA4, 5S,6R,15S-trihydroxy-7E,9E,11Z,13E-eicosatetraenoic acid] | 0.89 | 631 | significantly increased viability | reduce mitochondrial oxidative stress | stabilize mitochondria | significant rescue | have activities |  |
| CCCCC[C@H](O)[C@H](O)/C=C/C=C/C=C\C=C\[C@@H](O)CCCC(=O)O [LXB4, 5S,14R,15S-trihydroxy-6E,8Z,10E,12E-eicosatetraenoic acid] | 0.81 | 39.2 | significantly increased viability | reduce mitochondrial oxidative stress | stabilize mitochondria | significant rescue | have activities | strongly rescued |
